Activity calls are given as the source filed them. The rule behind the calls is not given here.
How the values were obtained:
[1] = tested on: HCC827; assay: Antiproliferative activity against human HCC827 cells assessed as cell growth inhibition by CCK8 assay; assay type: functional, cell-based
[2] = Selectivity index, ratio of IC50 for human MRC5 cells to IC50 for human HepG2 cells assessed as cell growth inhibition by CCK8 assay; assay type: toxicity; settings: MRC5 cells versus HepG2 cells, read-out: Ratio IC50
[3] = tested on: SK-OV-3; assay: Inhibition of cell migration in human SKOV3 cells incubated for 48 hrs by wound healing assay; assay type: functional, cell-based
[4] = tested on: NCI-H1299; assay: Antiproliferative activity against human H1299 cells assessed as cell growth inhibition by CCK8 assay; assay type: functional, cell-based
[5] = tested on: HT-29; assay: Inhibition of cell migration in human HT-29 cells incubated for 48 hrs by wound healing assay; assay type: functional, cell-based
[6] = Selectivity index, ratio of IC50 for human MRC5 cells to IC50 for human A549 cells assessed as cell growth inhibition by CCK8 assay; assay type: toxicity; settings: MRC5 cells versus A549 cells, read-out: Ratio IC50
[7] = Selectivity index, ratio of IC50 for human MRC5 cells to IC50 for human SKOV3 cells assessed as cell growth inhibition by CCK8 assay; assay type: toxicity; settings: MRC5 cells versus SKOV3 cells, read-out: Ratio IC50
[8] = tested on: MDA-MB-231; assay: Antiproliferative activity against human MDA-MB-231 cells assessed as cell growth inhibition by CCK8 assay; assay type: functional, cell-based
[9] = tested on: MRC5; assay: Cytotoxicity against human MRC5 cells assessed as cell growth inhibition by CCK8 assay; assay type: cell-based
[10] = tested on: AGS; assay: Antiproliferative activity against human AGS cells assessed as cell growth inhibition by CCK8 assay; assay type: functional, cell-based
[11] = tested on: HepG2; assay: Inhibition of cell migration in human HepG2 cells incubated for 48 hrs by wound healing assay; assay type: functional, cell-based
[12] = Selectivity index, ratio of IC50 for human MRC5 cells to IC50 for human HT-29 cells assessed as cell growth inhibition by CCK8 assay; assay type: toxicity; settings: MRC5 cells versus HT-29 cells, read-out: Ratio IC50
[13] = tested on: A-375; assay: Antiproliferative activity against human A375 cells assessed as cell growth inhibition by CCK8 assay; assay type: functional, cell-based
[14] = tested on: A549; assay: Inhibition of cell migration in human A549 cells incubated for 48 hrs by wound healing assay; assay type: functional, cell-based
[15] = tested on: A549; assay: Antiinvasive activity against human A549 cells at 0.6 uM after 24 hrs by crystal violet staining based transwell assay relative to control; assay type: functional
[16] = tested on: A549; assay: Induction of apoptosis in human A549 cells assessed as late apoptotic cells at 5 uM by FITC staining based flow cytometry (reference value: 2.12 to 2.33 %); assay type: functional
[17] = tested on: A549; assay: Induction of apoptosis in human A549 cells assessed as live cells at 10 uM by FITC staining based flow cytometry (reference value: 96 to 96.6 %); assay type: functional
[18] = tested on: A549; assay: Induction of apoptosis in human A549 cells assessed as necrotic cells at 10 uM by FITC staining based flow cytometry (reference value: 0.78 to 1.49 %); assay type: functional
[19] = tested on: A549; assay: Induction of apoptosis in human A549 cells assessed as late apoptotic cells at 10 uM by FITC staining based flow cytometry (reference value: 2.12 to 2.33 %); assay type: functional
[20] = tested on: A549; assay: Inhibition of cell migration in human A549 cells at 0.6 uM incubated for 48 hrs by wound healing assay relative to control; assay type: functional; settings: A549, 48 h
[21] = tested on: A549; assay: Induction of apoptosis in human A549 cells assessed as necrotic cells at 5 uM by FITC staining based flow cytometry (reference value: 0.78 to 1.49 %); assay type: functional
[22] = tested on: A549; assay: Induction of apoptosis in human A549 cells assessed as early apoptotic cells at 5 uM by FITC staining based flow cytometry (reference value: 0.34 to 0.39 %); assay type: functional
[23] = tested on: A549; assay: Induction of apoptosis in human A549 cells assessed as live cells at 5 uM by FITC staining based flow cytometry (reference value: 96 to 96.6 %); assay type: functional
[24] = tested on: A549; assay: Induction of apoptosis in human A549 cells assessed as early apoptotic cells at 10 uM by FITC staining based flow cytometry (reference value: 0.34 to 0.39 %); assay type: functional
[25] = tested on: SK-OV-3; assay: Inhibition of cell migration in human SKOV3 cells at 0.6 uM incubated for 48 hrs by wound healing assay relative to control; assay type: functional; settings: SK-OV-3, 48 h
[26] = tested on: SK-OV-3; assay: Induction of apoptosis in human SKOV3 cells assessed as necrotic cells at 10 uM by FITC staining based flow cytometry (reference value: 1.74 to 1.93 %); assay type: functional
[27] = tested on: SK-OV-3; assay: Induction of apoptosis in human SKOV3 cells assessed as necrotic cells at 5 uM by FITC staining based flow cytometry (reference value: 1.74 to 1.93 %); assay type: functional
[28] = tested on: SK-OV-3; assay: Induction of apoptosis in human SKOV3 cells assessed as late apoptotic cells at 5 uM by FITC staining based flow cytometry (reference value: 2.14 to 2.83 %); assay type: functional
[29] = tested on: SK-OV-3; assay: Induction of apoptosis in human SKOV3 cells assessed as late apoptotic cells at 10 uM by FITC staining based flow cytometry (reference value: 2.14 to 2.83 %); assay type: functional
[30] = tested on: SK-OV-3; assay: Induction of apoptosis in human SKOV3 cells assessed as live cells at 10 uM by FITC staining based flow cytometry (reference value: 95.5 to 96 %); assay type: functional
[31] = tested on: SK-OV-3; assay: Induction of apoptosis in human SKOV3 cells assessed as early apoptotic cells at 10 uM by FITC staining based flow cytometry (reference value: 0.59 to 0.97 %); assay type: functional
[32] = tested on: SK-OV-3; assay: Induction of apoptosis in human SKOV3 cells assessed as live cells at 5 uM by FITC staining based flow cytometry (reference value: 95.5 to 96 %); assay type: functional
[33] = tested on: SK-OV-3; assay: Induction of apoptosis in human SKOV3 cells assessed as early apoptotic cells at 5 uM by FITC staining based flow cytometry (reference value: 0.59 to 0.97 %); assay type: functional
[34] = tested on: SK-OV-3; assay: Antiinvasive activity against human SKOV3 cells at 0.6 uM after 24 hrs by crystal violet staining based transwell assay relative to control; assay type: functional
[35] = molecular target: Programmed cell death protein 1/Programmed cell death 1 ligand 1 (Homo sapiens, UniProt Q15116+Q9NZQ7); assay: Inhibition of PD1 (unknown origin)/PDL1 (unknown origin) protein-protein interaction by HTRF assay; assay type: protein-complex assay
Programmed cell death protein 1/Programmed cell death 1 ligand 1, sequence (Q15116 whole entry): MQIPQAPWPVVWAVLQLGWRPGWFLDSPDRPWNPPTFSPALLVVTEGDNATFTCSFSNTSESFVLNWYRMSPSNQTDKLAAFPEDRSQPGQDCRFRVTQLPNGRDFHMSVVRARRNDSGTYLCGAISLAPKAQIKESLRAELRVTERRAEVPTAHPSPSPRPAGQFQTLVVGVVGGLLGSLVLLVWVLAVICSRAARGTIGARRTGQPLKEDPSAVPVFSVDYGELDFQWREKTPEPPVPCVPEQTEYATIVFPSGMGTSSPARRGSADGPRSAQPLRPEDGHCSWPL
Programmed cell death protein 1/Programmed cell death 1 ligand 1, sequence (Q9NZQ7 whole entry): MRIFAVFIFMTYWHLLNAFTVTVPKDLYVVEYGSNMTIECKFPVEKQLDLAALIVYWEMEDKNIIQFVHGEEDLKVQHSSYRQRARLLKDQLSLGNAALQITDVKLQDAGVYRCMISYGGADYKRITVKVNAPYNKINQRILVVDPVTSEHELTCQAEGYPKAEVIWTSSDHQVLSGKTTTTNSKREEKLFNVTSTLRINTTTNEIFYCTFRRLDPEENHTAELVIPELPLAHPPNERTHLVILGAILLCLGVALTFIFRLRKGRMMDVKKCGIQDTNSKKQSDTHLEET

Row | IC50 [1] | IC50 [4] | IC50 [8] | IC50 [10] | IC50 [13] | Structure (SMILES) | selectivity ratio [2] | inhibition [3] | inhibition [5] | selectivity ratio [6] | selectivity ratio [7] | IC50 [9] | inhibition [11] | selectivity ratio [12] | inhibition [14] | Activity [15] | Activity [16] | Activity [17] | Activity [18] | Activity [19] | inhibition at 0.6 µM [20] | other results
1 | 7.28 µM | 8.1 µM | 6.75 µM | 4.52 µM | 7 µM | Cc1c(CNc2nc(NCCCN3CCCC3)cc(N3CCOCC3)n2)cccc1-c1ccccc1 | 198 | Active | Active | 103 | 139 | 1050 µM | Active | 139 | Active | – | – | – | – | – | – | –
2 | 5.27 µM | 6.74 µM | 4.88 µM | 3.11 µM | 4.03 µM | CCN(CC)CCCNc1cc(N2CCNCC2)nc(NCc2cccc(-c3ccccc3)c2C)n1 | 82 | Active | Active | 147 | 278 | 579 µM | Active | 278 | Active | 70.23% | 6.33% | 59.6% | 8.19% | 14.6% | 42.4% | Activity [26]: 25.7%; Activity [27]: 3.16%; Activity [28]: 4.08%; Activity [29]: 8.26%; Activity [30]: 54.5%; Activity [31]: 11.5%; Activity [21]: 2.24%; Activity [32]: 87.8%; IC50 [35]: 5.15 µM; Activity [22]: 4.3%; Activity [33]: 5%; Activity [23]: 87.1%; Activity [34]: 66.68%; Activity [24]: 17.7%; inhibition at 0.6 µM [25]: 68.6%

Second part, the compound before the results:

Row | Structure (SMILES) | IC50 [1] | IC50 [4] | IC50 [8] | IC50 [10] | IC50 [13] | selectivity ratio [2] | inhibition [3] | inhibition [5] | selectivity ratio [6] | selectivity ratio [7] | IC50 [9] | inhibition [11] | selectivity ratio [12] | inhibition [14] | Activity [15] | Activity [16] | Activity [17] | Activity [18] | Activity [19] | inhibition at 0.6 µM [20] | other results
3 | Cc1c(CNc2nc(NCCCN(C)C)cc(N3CCOCC3)n2)cccc1-c1ccccc1 | – | – | – | – | – | 213 | Active | Active | 112 | 129 | 1050 µM | Active | 129 | Active | 21.81% | 3.99% | 81.7% | 3.76% | 18.2% | 53.4% | Activity [21]: 2.05%; Activity [22]: 1.28%; Activity [23]: 92.7%; Activity [24]: 4.42%; inhibition at 0.6 µM [25]: 39.6%
4 | Cc1c(CNc2nc(NCCCN3CCCCC3)cc(N3CCOCC3)n2)cccc1-c1ccccc1 | – | – | – | – | – | 295 | Active | Active | 185 | 267 | 879 µM | Active | 267 | Active | – | – | – | – | – | – | Activity [26]: 2.18%; Activity [27]: 1.87%; Activity [28]: 2.31%; Activity [29]: 4.98%; Activity [30]: 91.3%; Activity [31]: 1.49%; Activity [32]: 95%; Activity [33]: 0.85%; Activity [34]: 60%
5 | Cc1c(CNc2nc(NCCCN3CCOCC3)cc(N3CCOCC3)n2)cccc1-c1ccccc1 | 7.28 µM | 8.1 µM | 6.75 µM | 4.52 µM | 7 µM | – | – | – | – | – | – | – | – | – | – | – | – | – | – | – | –
6 | CCN(CC)CCCNc1cc(N2CCOCC2)nc(NCc2cccc(-c3ccccc3)c2C)n1 | – | – | – | – | – | 165 | Active | Active | 114 | 119 | 924 µM | Active | 119 | Active | – | – | – | – | – | – | –

From ChEMBL document CHEMBL4622943, “Design, synthesis and biological evaluation of 2-methyl-(1,1'-biphenyl)-pyrimidine conjugates” (Bioorg Med Chem Lett, 2020)
